# Source: article PMC8071314, “Computational Design and Development of Benzodioxane-Benzamides as Potent Inhibitors of FtsZ by Exploring the Hydrophobic Subpocket” (Antibiotics, 2021)
# Columns and labels:
# [1] = system: MSSA ATCC29213; set-up: method as in PMID 25462242, PMID 27191617, PMID 31750973, PMID 28586174, PMID 32260339; conditions: Figure 1; cited from earlier work
# [2] = system: B. subtilis FtsZ rings (strain WM5126, GFP-ZapA); assay: Fluorescence microscopy of GFP-ZapA (Z ring) localization; assay type: cell-based, Bacillus subtilis; conditions: 1 h exposure
# Description: (yellow arrows in Figure 5 highlight normal sharp bands at the future division sits). On the contrary, in cells treated with compounds 7 and 8, we observed GFP-ZapA forming many (0.4 µg/mL 7) or nearly all (0.8 µg/mL 7 or 0.4 µg/mL 8) foci or focal clusters (white arrows in Figure 5), and abnormal cell elongation is clearly evident. The perturbation of Z rings and cell elongation is similar to the previously described effects of 8j.
# For fluorescence microscopy, overnight cultures of WM5126 were grown at […] (after 1:200 dilution of overnight and addition of 0.1% xylose to induce expression of GFP-ZapA) for ~2 h until reaching an OD600 of ~0.2, then treated with no drug or with compounds 7 or 8 diluted in water from stock solutions of 40 mg/mL (8) or 27 mg/mL (7) in DMSO. Those dilutions (40 µg/mL in water) were then added at 1:100 or 1:50 to the cultures and grown for 1 h shaking at 33 °C prior to spotting on a thin layer of 1% agarose in phosphate buffered saline. Cells were imaged with differential interference contrast (DIC) and fluorescence using an Olympus BX100 fitted with a 100 × Plan Apochromat objective (N.A. 1.4) and a GFP filter set (Chroma). Images were acquired with CellSens software (Olympus) and DIC, and fluorescent images of the same field were overlaid using ImageJ [31].
# Figure 5 Effect of compounds 7 and 8 on B. subtilis Z rings. B. subtilis strain WM5126 was induced with 0.1% xylose to express GFP-ZapA, then exposed to compounds 7 or 8 for 1 h during exponential growth at 37 °C prior to imaging by DIC and fluorescence. Yellow arrows indicate normal sharp rings at the future division site, while white arrows indicate abnormal foci or clusters. Scale bar, 5 µm.
# [3] = system: MDRSA 11.7; assay: MIC on multidrug resistant clinical S. aureus strain MDRSA 11.7 (EUCAST/CLSI); assay type: cell-based; conditions: Staphylococcus aureus
# Description: (§1) We tested 1–8 for their antimicrobial activity on different S. aureus strains (Table 2).
# (§2) The antibacterial activities on MDRSA 11.7 and MDRSA 12.1 were performed following the European Committee on Antimicrobial Susceptibility Testing (EUCAST) recommendations and Clinical and Laboratory Standards Institute (CLSI) guidelines, as detailed before. Tetracycline was used as a positive control on every assay plate.
# [4] = system: MRC-5 cells; assay: MTT cytotoxicity assay on MRC-5 cells; assay type: cell-based, human; conditions: concentration reducing viability of MRC-5 cells by 90%, 24 h incubation
# Description: (§3) We first determined the minimal inhibitory concentration (MIC), i.e., the lowest compound dose (µM) arresting bacterial growth, and the minimal bactericidal concentration (MBC), i.e., the minimal dose (µM) of the compound required for an irreversible block, even after drug removal. Secondly, the derivatives having the most promising activities vs. MRSA were also tested on human MRC-5 cells, calculating their percentages of cytotoxicity by using the MTT assay. Cells were first incubated with each compound for 24 h, then the derivative was removed, and the cells were overlaid with MTT for an additional 3 h. After that time, DMSO replaced the MTT solution, and after 10 min the absorbance was measured at 570 nm. The percentage of cytotoxicity was defined by the formula [100 − (sample OD/untreated cells OD) × 100]. Table 2 reports TD90, defined as the compound concentration (µM) that reduced viability of MRC-5 cells by 90%. Moreover, we reported the therapeutic index (TI), as TD90 and MBC ratio.
# Compounds showing an antibacterial activity at a concentration lower than 10 μg/mL were serially diluted in DMEM and tested for cytotoxicity on MRC-5 cells by the MTT assay (Sigma, St Louis, MO, USA). Protocol was the same previously reported.
# [5] = system: MDRSA 12.1; assay: MIC on multidrug resistant clinical S. aureus strain MDRSA 12.1 (EUCAST/CLSI); assay type: cell-based, Staphylococcus aureus; conditions: for MIC: Staphylococcus aureus, MDRSA 12.1
# Description: as §1, §2
# [6] = system: MSSA ATCC 29213 and MRSA ATCC 43300; assay: MIC and MBC on methicillin-sensitive and methicillin-resistant S. aureus; assay type: cell-based, Staphylococcus aureus; conditions: for MIC / MBC: Staphylococcus aureus, MSSA ATCC 29213 and MRSA ATCC 43300; for MIC: lowest dose arresting bacterial growth; for MBC: minimal dose for irreversible block; for fold more potent than inferior (methylenoxy) homolog: MRSA and MSSA, 1 vs VI, 2 vs VII, 3 vs V, 5 vs 4, 8 vs 7
# Description: as §3
# The antibacterial activity was tested on both a methicillin-sensitive and a methicillin-resistant S. aureus strain, dissolving all the compounds in dimethyl sulfoxide (DMSO) and using fresh cell cultures at 10^5 cells/mL, in a final volume of 2 mL. The detailed protocol is identical to what was previously reported. Every assay was performed in quadruplicate, and for each series of experiments, both positive (no compounds) and negative (no bacteria) controls were included.
# [7] = system: B. subtilis strain WM5126; assay: Spot viability assay on LB plates; assay type: cell-based; conditions: Bacillus subtilis, spotted on LB plates with 0, 0.03, 0.06, 0.1 or 1 µg/mL compound
# Description: The promising properties of these new compounds prompted us to test them on B. subtilis, a model Gram-positive species used previously in evaluating other benzamides, such as 8j, the benzothiazole derivative of PC190723 [28]. We chose derivatives 1, 5, and 8, which had the lowest MICs on S. aureus and because they were representative of different substituents on the benzodioxane scaffold. B. subtilis strain WM5126 was grown until early log phase, and then 1 × and 10 × dilutions of the culture were spotted onto LB plates containing 0, 0.03, 0.06, 0.1, or 1 µg/mL final concentration of the compounds.
# The two B. subtilis strains used were WM3612 (JH642 amyE::Pxyl-gfp-gp56), described in Bhambani et al., and WM5126 (JH642 amyE::Pxyl-gfp-zapA), which is the same as strain FG347 [29]. For spot viability assays on plates, compounds were diluted from DMSO stocks into molten LB agar as described above and mixed well before solidifying. WM3612 cultures were grown to early exponential phase in LB broth at 37 °C, then spotted directly or after 1:10 dilution into LB onto LB plates containing various concentrations of compounds. After allowing spots to air dry, plates were then incubated overnight at 34 °C and photographed.
Structure (SMILES),MIC [3],MIC [5],MIC [6],MIC [1],GFP-ZapA forming foci or focal clusters ([2]; 0.4 µg/mL),GFP-ZapA forming foci or focal clusters ([2]; 0.8 µg/mL),TD90 [4],MBC [6],MIC [7],fold more potent than inferior (methylenoxy) homolog [6],"times more active than inferior homolog ([5]; MDRSA, 3 vs V)",melting point
NC(=O)c1c(F)ccc(OCc2nc3cc(Cl)ccc3s2)c1F [Compound 8j],–,–,–,0.70 µM,–,–,–,–,–,–,–,–
NC(=O)c1c(F)ccc(OCC2COc3cc4c(cc3O2)CCCC4)c1F (stereo not drawn) [Compound 7],10.7 µM,5.3 µM,13.3 µM,–,many,nearly all,200 µM,13.3 µM,–,–,–,–
COC(=O)c1ccc2c(c1)OC(COc1ccc(F)c(C(N)=O)c1F)CO2 (stereo not drawn) [IV],–,–,–,1.6 µM,–,–,–,–,–,–,–,–
"NC(=O)c1c(F)ccc(OCCC2COc3cc4ccccc4cc3O2)c1F (stereo not drawn) [Compound 5, 3-[2-(2,3-dihydronaphtho[2,3-b][1,4]dioxin-2-yl)ethoxy]-2,6-difluorobenzamide]",1.3 µM,0.6 µM,0.6 µM,–,–,–,233 µM,0.6 µM,< 0.1 µg/mL,12 fold,–,–
"Cc1nc(-c2ccc3c(c2)OC(CCOc2ccc(F)c(C(N)=O)c2F)CO3)no1 (stereo not drawn) [Compound 1, 3-[2-(7-(5-methyl-1,2,4-oxadiazol-3-yl)-1,4-benzodioxan-2-yl)ethyloxy]-2,6-difluorobenzamide]",1.2 µM,1.2 µM,1.2 µM,–,–,–,>1910 µM,1.2 µM,0.1 to 1 µg/mL,5 fold,–,–
NC(=O)c1c(F)ccc(OCc2nc3cc(Cl)cnc3s2)c1F [PC190723],–,–,–,2.8 µM,–,–,–,–,–,–,–,–
NC(=O)c1c(F)ccc(OCCCC2COc3ccccc3O2)c1F (stereo not drawn) [III],–,–,–,28.6 µM,–,–,–,–,–,–,–,–
"NC(=O)c1c(F)ccc(OCCC2COc3cc4c(cc3O2)CCCC4)c1F (stereo not drawn) [Compound 8, 3-[2-(2,3,6,7,8,9-hexahydronaphtho[2,3-b][1,4]dioxin-2-yl)ethoxy]-2,6-difluorobenzamide]",0.3 µM,0.3 µM,0.25 µM,–,nearly all,–,2054 µM,0.25 µM,< 0.1 µg/mL,50 fold,–,166.5 °C

# Now from value to compound, other results behind:
MIC [3],MIC [5],MIC [6],Structure (SMILES),MIC [1],GFP-ZapA forming foci or focal clusters ([2]; 0.4 µg/mL),GFP-ZapA forming foci or focal clusters ([2]; 0.8 µg/mL),TD90 [4],MBC [6],MIC [7],fold more potent than inferior (methylenoxy) homolog [6],"times more active than inferior homolog ([5]; MDRSA, 3 vs V)",melting point
11.2 µM,11.2 µM,14 µM,NC(=O)c1c(F)ccc(OCCCOc2ccc3ccccc3c2)c1F [Compound 6],–,–,–,>2238 µM,14 µM,–,–,–,–
9.6 µM,4.8 µM,6 µM,"CCc1nc(-c2ccc3c(c2)OC(COc2ccc(F)c(C(N)=O)c2F)CO3)no1 (stereo not drawn) [VII, reference compound]",6.0 µM,–,–,>1916 µM,6 µM,–,–,–,–
11.4 µM,11.4 µM,7.1 µM,"NC(=O)c1c(F)ccc(OCC2COc3cc4ccccc4cc3O2)c1F (stereo not drawn) [Compound 4, 3-[(2,3-dihydronaphtho[2,3-b][1,4]dioxin-2-yl)methoxy]-2,6-difluorobenzamide]",–,–,–,>2276 µM,7.1 µM,–,–,–,–
0.6 µM,0.6 µM,0.6 µM,CCc1nc(-c2ccc3c(c2)OC(CCOc2ccc(F)c(C(N)=O)c2F)CO3)no1 (stereo not drawn) [Compound 2],–,–,–,1854 µM,0.6 µM,–,10 fold,–,–
49.8 µM,24.9 µM,15.6 µM,"NC(=O)c1c(F)ccc(OCC2COc3ccccc3O2)c1F (stereo not drawn) [I, reference compound]",15.6 µM,–,–,49.8 µM,249 µM,–,–,–,–
1.1 µM,1.1 µM,0.5 µM,"CSc1nc(-c2ccc3c(c2)OC(CCOc2ccc(F)c(C(N)=O)c2F)CO3)no1 (stereo not drawn) [Compound 3, 3-[2-(7-(5-methylthio-1,2,4-oxadiazol-3-yl)-1,4-benzodioxan-2-yl)ethyloxy]-2,6-difluorobenzamide]",–,–,–,1668 µM,0.5 µM,–,three,two,–
9.9 µM,5 µM,6.2 µM,"Cc1nc(-c2ccc3c(c2)OC(COc2ccc(F)c(C(N)=O)c2F)CO3)no1 (stereo not drawn) [VI, reference compound]",6.2 µM,–,–,>1983 µM,6.2 µM,–,–,–,–
< 2.3 µM,< 2.3 µM,1.4 µM,"CSc1nc(-c2ccc3c(c2)OC(COc2ccc(F)c(C(N)=O)c2F)CO3)no1 (stereo not drawn) [V, reference compound]",1.4 µM,–,–,1700 µM,1.4 µM,–,–,–,–
11.9 µM,11.9 µM,14.9 µM,"NC(=O)c1c(F)ccc(OCCC2COc3ccccc3O2)c1F (stereo not drawn) [II, reference compound]",14.9 µM,–,–,226 µM,14.9 µM,–,–,–,–
